{"source": "paper PMC3168589", "about": "(The European journal of neuroscience, 2011)", "key": {"[1]": {"tested_on": "CREB phosphorylation in hippocampal pyramidal neurons", "assay": "CREB phosphorylation", "assay_type": "cell-based, rat (Sprague-Dawley, 1- to 2-d-old pups)", "details": "for concentrations inducing pCREB signal statistically different from vehicle: CRF F5,184 = 36.59, P < 0.001, UCN F5,175 = 23.00, P < 0.001; for τ of pCREB increase (time course): CRF df = 128, R^2 = 0.58, UCN df = 193, R^2 = 0.3, nonlinear curve fit"}, "[2]": {"tested_on": "CREB phosphorylation in hippocampal neurons", "details": "10 μM H89, hippocampal neurons; ref Bayatti et al., 2003; cited from earlier work"}, "[3]": {"tested_on": "cAMP in hippocampal pyramidal neurons", "assay": "cAMP assay", "assay_type": "cell-based, rat (Sprague-Dawley, 1- to 2-d-old pups)", "details": "ISO 10 μM, 15 min, with IBMX 75 μM; positive control; P < 0.001 vs. '0 min'"}, "[4]": {"tested_on": "CRFR1α", "details": "stably transfected cell lines; ref Grammatopoulos et al., 2000; cited from earlier work"}, "[5]": {"target": "CRFR1", "details": "read-out: Ki for CRFR1, ref Perrin et al., 1993; cited from earlier work"}, "[6]": {"tested_on": "hippocampal neurons", "details": "2002, cited from earlier work"}, "[7]": {"tested_on": "MAPK signaling in human myocytes", "details": "UCN, but not CRF, ref Grammatopoulos et al., 2000; cited from earlier work"}, "[8]": {"tested_on": "CRFR1", "details": "modified yeast cell screen; ref Ladds et al., 2003; cited from earlier work"}}, "note": "“Also recorded” adds a separate entry of the source. Read-outs that look alike come from different tables or passages of the source. The star is where a group is joined. Myristoyl = CCCCCCCCCCCCCC(=O)*", "data": [{"molecule": "CCCCN(CC)c1nc(C)nc2c1c(C)cn2-c1c(C)cc(C)cc1C", "note": "[CP154526]", "values": [{"measurement": "effect on STR-induced CREB phosphorylation", "setting": "[1]; CP154526 (100 nM) with STR 70 nM, F3,117 = 55.29, P < 0.001", "result": "blocked"}]}, {"molecule": "O=S(=O)(NCCNC/C=C/c1ccc(Br)cc1)c1cccc2cnccc12", "note": "[H89]", "values": [{"measurement": "involvement of PKA in CRF-induced CREB phosphorylation", "setting": "[2]", "result": "implicated PKA in CRF-induced CREB phosphorylation"}, {"measurement": "effect on CRF-induced CREB phosphorylation", "setting": "[1]; H89 2 μM, CRF 40 nM, F3,105 = 44.94, P > 0.05", "result": "did not block; also recorded: failed to block"}, {"measurement": "effect on UCN-induced CREB phosphorylation", "setting": "[1]; H89 2 μM, UCN 40 nM, F3,118 = 27.19, P > 0.05", "result": "failed to block; also recorded: did not block"}]}, {"molecule": "CC(C)NCC(O)c1ccc(O)c(O)c1", "note": "(stereo not shown) [ISO, isoproterenol]", "values": [{"measurement": "cAMP increase", "setting": "[3]", "result": "significantly increased cAMP levels"}]}, {"molecule": "COc1cccc(-c2cc(=O)c3ccccc3o2)c1N", "note": "[PD98059]", "values": [{"measurement": "effect on CRF-induced CREB phosphorylation", "setting": "[1]; PD98059 25 μM, CRF 40 nM, F3,86 = 30.25, P > 0.05", "result": "failed to affect; also recorded: unaffected"}, {"measurement": "effect on STR-induced CREB phosphorylation", "setting": "[1]; PD98059 (25 μM), STR (70 nM), F3,122 = 51.88, P > 0.05, data not shown", "result": "unaffected"}, {"measurement": "effect on UCN-induced CREB phosphorylation", "setting": "[1]; PD98059 (25 μM), UCN 40 nM, F3,126 = 31.29, P < 0.001", "result": "attenuated; also recorded: attenuated, but did not block"}]}, {"molecule": "Nc1ncnc2c1ncn2C1CCCO1", "note": "(stereo not shown) [SQ22536]", "values": [{"measurement": "effect on CRF-induced CREB phosphorylation", "setting": "[1]; SQ22536 90 μM, CRF 40 nM, F3,83 = 22.02, P > 0.05", "result": "no effect; also recorded: failed to affect"}, {"measurement": "effect on UCN-induced CREB phosphorylation", "setting": "[1]; SQ22536 90 μM, UCN 40 nM, F3,113 = 25.34, P > 0.05", "result": "no effect; also recorded: failed to affect"}]}, {"molecule": "N#CC(=C(/N)Sc1ccccc1N)/C(C#N)=C(/N)Sc1ccccc1N", "note": "[U0126]", "values": [{"measurement": "effect on CRF-induced CREB phosphorylation", "setting": "[1]; U0126 10 μM, CRF 40 nM, F3,78 = 18.69, P > 0.05", "result": "failed to affect; also recorded: unaffected"}, {"measurement": "effect on STR-induced CREB phosphorylation", "setting": "[1]; U0126 (10 μM), STR (70 nM), F3,126 = 43.18, P > 0.05, data not shown", "result": "unaffected"}, {"measurement": "effect on UCN-induced CREB phosphorylation", "setting": "[1]; U0126 (10 μM), UCN 40 nM, F3,128 = 28.68, P < 0.001", "result": "attenuated; also recorded: attenuated, but did not block"}]}, {"molecule": "O=C1OC2(c3ccccc31)c1ccc(O)c(O)c1Oc1c2ccc(O)c1O", "note": "[gallein]", "values": [{"measurement": "effect on CRF-induced CREB phosphorylation", "setting": "[1]; gallein 75 μM, CRF 40 nM, 15 min, F3,117 = 30.17, P < 0.001", "result": "blocked"}, {"measurement": "effect on UCN-induced CREB phosphorylation", "setting": "[1]; gallein 75 μM, UCN 40 nM, 15 min, F3,118 = 21.74, P < 0.001", "result": "blocked"}]}, {"molecule": "PKI 14-22 amide myristoylated: second PKA inhibitor (Myristoyl-SGRTGRRNA-NH2; SMILES CCCCCCCCCCCCCC(=O)N[C@@H](CO)C(=O)NCC(=O)N[C@@H](CCCNC(=N)N)C(=O)N[C@H](C(=O)NCC(=O)N[C@@H](CCCNC(=N)N)C(=O)N[C@@H](CCCNC(=N)N)C(=O)N[C@@H](CC(N)=O)C(=O)N[C@@H](C)C(N)=O)[C@@H](C)O; UniProt P61925 14-22, looked up, fragment)", "values": [{"measurement": "effect on CRF-induced CREB phosphorylation", "setting": "[1]; PKI 14-22 amide myristoylated 1 μM, CRF 40 nM, F3,133 = 38.91, P > 0.05, data not shown", "result": "failed to block"}, {"measurement": "effect on UCN-induced CREB phosphorylation", "setting": "[1]; PKI 14-22 amide myristoylated 1 μM, UCN 40 nM, F3,113 = 39.24, P > 0.05, data not shown", "result": "failed to block"}]}, {"molecule": "cholera toxin [CTX]", "values": [{"measurement": "effect on CRF-induced CREB phosphorylation", "setting": "[1]", "result": "abolished; also recorded: blocked"}, {"measurement": "effect on UCN-induced CREB phosphorylation", "setting": "[1]", "result": "abolished; also recorded: blocked"}]}, {"molecule": "human/rat corticotropin releasing factor [CRF]", "values": [{"measurement": "cAMP activation, CRF compared with UCN", "setting": "[4]", "result": "induce cAMP activation equally"}, {"measurement": "Ki", "setting": "[5]", "result": "5.2 to 11", "unit": "nM"}, {"measurement": "effect on hippocampal neuron excitability", "setting": "[6]; ref Aldenhoff et al., 1983, Blank et al.", "result": "rapidly increases hippocampal neuron excitability"}, {"measurement": "effect on hippocampal LTP", "setting": "[6]; ref Blank et al.", "result": "enhances hippocampal LTP"}, {"measurement": "concentrations inducing pCREB signal statistically different from vehicle", "setting": "[1]", "result": "≥ 40", "unit": "nM"}, {"measurement": "τ of pCREB increase (time course)", "setting": "[1]", "result": "~ 10 min"}]}, {"molecule": "pertussis toxin [PTX]", "values": [{"measurement": "effect on UCN-induced CREB phosphorylation", "setting": "[1]; PTX 500 ng/mL, 18 hr pre-treatment, UCN 40 nM, F3,116 = 40.60, P > 0.05", "result": "did not affect"}]}, {"molecule": "rat urocortin I [UCN]", "values": [{"measurement": "cAMP activation, CRF compared with UCN", "setting": "[4]", "result": "induce cAMP activation equally"}, {"measurement": "activation of MAPK signaling", "setting": "[7]", "result": "activates MAPK signaling"}, {"measurement": "CRFR1-dependent G protein activation", "setting": "[8]", "result": "CRFR1-dependent activation of Gαq"}, {"measurement": "concentrations inducing pCREB signal statistically different from vehicle", "setting": "[1]", "result": "≥ 40", "unit": "nM"}, {"measurement": "τ of pCREB increase (time course)", "setting": "[1]", "result": "~ 7 min"}]}]}
